Source: EP1091938B1, “ANTIHISTAMINIC PIPERIDINE DERIVATIVES AND INTERMEDIATES FOR THE PREPARATION THEREOF” (Aventisub II Inc., priority 1998, dated 2000)

What was measured:
[1] = molecular target: T1, H1-histaminergic receptors (Rattus norvegicus, UniProt P31390); assay: [3H] pyrilamine binding in rat cortex membranes; details: displacement of 3H pyrilamine (2 nM final), rat cortex homogenate, 30 minute incubation at room temperature; Ki from IC50 with the Cheng-Prusoff equation
T1 construct: The brains of young male rats are removed; The cortici are dissected; from tissue; host or cells: rat brain cortex membrane homogenate
T1 sequence (P31390 whole entry): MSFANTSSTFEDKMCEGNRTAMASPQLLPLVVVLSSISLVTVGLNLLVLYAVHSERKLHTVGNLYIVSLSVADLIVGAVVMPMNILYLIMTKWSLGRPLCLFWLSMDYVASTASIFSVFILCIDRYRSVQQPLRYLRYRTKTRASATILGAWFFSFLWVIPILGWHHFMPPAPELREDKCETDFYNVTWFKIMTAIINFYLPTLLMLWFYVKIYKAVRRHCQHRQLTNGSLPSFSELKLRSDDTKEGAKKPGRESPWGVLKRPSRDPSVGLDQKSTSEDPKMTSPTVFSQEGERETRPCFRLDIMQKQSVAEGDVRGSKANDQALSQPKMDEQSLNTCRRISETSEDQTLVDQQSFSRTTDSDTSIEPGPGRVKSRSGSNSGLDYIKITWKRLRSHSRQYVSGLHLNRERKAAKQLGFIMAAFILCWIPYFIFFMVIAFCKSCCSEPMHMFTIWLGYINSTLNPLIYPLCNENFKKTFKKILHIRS
Protocol: Antihistaminic potential is measured by affinity of a test compound for [^3H] pyrilamine binding sites associated with the antagonist component of H1-histaminergic receptors in animal brain membranes. Affinity for this receptor is indicative of the potential of a test compound to interact with central and peripheral H1-histaminergic receptors.
The following method is used to determine the affinity of test compounds for [^3H] pyrilamine binding sites in rat cortex.
The brains of young male rats are removed. The cortici are dissected and stored at -20°C or immediately used. The tissue is homogenized in 10 ml of ice-cold […] K/NaPO4 buffer (pH 7.4) using a Polytron (setting 6 for 15 seconds). […]
The brains of young male rats are removed. […] The filters are either transferred to scintillation vials and 10 ml Quicksafe A is added for liquid scintillation spectrometry or a thin layer of solid scintillant is melted onto the filters and the filters then counted using a betaplate beta counter. Specific binding of ^3H pyrilamine is measured as the excess over blanks taken in the presence of 2.10-6 M promethazine. Protein content of the membranes is determined by the method of Lowry et al., J. Biol. Chem. 193, 265-275 (1951). Displacement curves are analyzed using the GraphPad (GraphPad Software, Inc.) or similar program to obtain Hill slopes and IC50 values. […]

[2] = extent of first pass metabolism to two primary metabolites; cited from earlier work

| Ki [1] [nM] | SMILES | first pass metabolism [2] [%] |
| --- | --- | --- |
| 360 | CC(CO)(C(=O)O)c1ccc(C(O)CCCN2CCC(C(O)(c3ccccc3)c3ccccc3)CC2)cc1 (stereo not drawn) [4-[1-hydroxy-4-[4-(hydroxydiphenylmethyl)-1-piperidinyl]butyl]-α-(hydroxymethyl)-α-methyl-benzeneacetic acid] | – |
| – | CC(C)(C)c1ccc(C(O)CCCN2CCC(C(O)(c3ccccc3)c3ccccc3)CC2)cc1 (stereo not drawn) [Terfenadine, α-[4-(1,1-dimethylethyl)phenyl]-4-(hydroxydiphenylmethyl)-1-piperidinebutanol] | 99 |
